Results as given in patent US9023789B2, “Amylin analogs and pharmaceutical compositions thereof” (Novo Nordisk A/S, priority 2012, dated 2015).
≈ marks a conversion by molar mass, not a printed value. Where two headings read alike, the source gives them in different places. Numbered stars: 1 amine (or outer) side, 2 acyl side, 3 side chain; on linkers, the order of the positions; unused ones are H or OH. Bridge positions count the residues as written; N and C are the ends. Side chains are listed from the residue outwards. Peptide text beside a SMILES is read from it. * marks the point of attachment. C20 diacid = O=C(O)CCCCCCCCCCCCCCCCCCC(=O)*; γGlu = O=C(O)[C@H](CCC(=O)[*:2])N[*:1]

Legend:
[1] = target: T1, rat amylin receptor (rat calcitonin receptor + rat RAMP 3) (Rattus norvegicus, UniProt P32214+Q9JJ73); experiment: ASSAY (VI) binding to the rat amylin receptor; conditions: for IC50: binding to rat amylin receptor, read-out: rAmylin-R bind IC50
T1 construct: expressed in transfected cells; host or cells: BHK tk'ts 13 (transient, FuGENE 6), membranes
T1 sequence (P32214 25-479 isoform P32214-2 limits assumed): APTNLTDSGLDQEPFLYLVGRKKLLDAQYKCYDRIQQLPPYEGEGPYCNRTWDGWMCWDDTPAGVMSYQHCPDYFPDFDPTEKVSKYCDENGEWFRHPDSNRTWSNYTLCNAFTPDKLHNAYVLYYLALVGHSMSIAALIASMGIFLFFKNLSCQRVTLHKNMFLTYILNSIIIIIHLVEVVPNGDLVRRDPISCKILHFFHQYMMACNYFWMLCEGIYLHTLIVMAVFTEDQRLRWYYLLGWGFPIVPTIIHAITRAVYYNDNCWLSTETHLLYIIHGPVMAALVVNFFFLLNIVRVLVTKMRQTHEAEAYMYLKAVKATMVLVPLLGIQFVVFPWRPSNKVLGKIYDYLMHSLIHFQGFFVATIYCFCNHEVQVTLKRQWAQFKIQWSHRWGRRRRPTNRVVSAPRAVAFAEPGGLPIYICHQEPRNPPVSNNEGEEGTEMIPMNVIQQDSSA
T1 sequence (Q9JJ73 23-147 partner): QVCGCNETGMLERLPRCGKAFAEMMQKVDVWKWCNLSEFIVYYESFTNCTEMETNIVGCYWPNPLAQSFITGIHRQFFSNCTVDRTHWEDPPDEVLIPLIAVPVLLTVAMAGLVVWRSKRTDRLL
How it was run: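 The cell-membrane assay assessed binding at the rat amylin receptor. BHK tk′ts 13 cells were transfected transiently with rat calcitonin receptor, with FuGENE® 6 (Roche) as the transfection reagent, used per the manufacturer's recommendations. Approximately 48 hours after transfection the cells were harvested, and membranes were prepared for measuring binding.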

rat calcitonin receptor = target: T2, rat calcitonin receptor (Rattus norvegicus, UniProt P32214); experiment: ASSAY (VIII) binding to the rat calcitonin receptor; conditions: Table 7, read-out: rCTR bind IC50
T2 construct: expressed in transfected cells; host or cells: BHK tk'ts 13 (transient, FuGENE 6), membranes
T2 sequence (P32214 25-479 isoform P32214-2 limits assumed): T1 sequence (P32214 25-479 isoform P32214-2 limits assumed)
How it was run: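 Receptor source: membranes from transiently transfected BHK tk′ts 13 cells expressing rat calcitonin receptor, collected roughly 48 hours after transfection.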

[2] = target: T3, human amylin 3(a) receptor (human calcitonin receptor + RAMP-3) in BHK570 cells (Homo sapiens, UniProt O60896+P30988); experiment: ASSAY (II)a functional assay, human amylin receptor (CRE luciferase); assay type: cell-based; conditions: for EC50: human amylin receptor functional potency, assay (II), read-out: hAmylin-R funct. EC50
T3 construct: expressed in transfected cells
How it was run: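 Functional agonism was measured by CRE-luciferase reporter luminescence in BHK cells bearing calcitonin receptor, or calcitonin receptor plus RAMP-3 as the amylin 3(a) receptor. Stimulation lasted 3 hours at 37° C.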

[3] = ASSAY (IV) determination of solubility; assay type: physicochemical
How it was run: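 UPLC read-out of polypeptide concentration after centrifugation. Samples: aqueous polypeptide stock ([…]) + 100 mM buffer 1:1, glycylglycine pH 3.0–5.0 or bistrispropane pH 6.0–8.0; 18 h, RT.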

[4] = Table 7, rat binding selectivity, rCTR IC50 / rAmylin-R IC50
[5] = Table 7a (preferred compounds), rat binding selectivity, rCTR IC50 / rAmylin-R IC50
[6] = ratio of rCTR bind IC50 to rAmylin-R bind IC50
[7] = hCTR funct. EC50 divided by hAmylin-R funct. EC50
[8] = human functional selectivity: hCTR funct. EC50 / hAmylin-R funct. EC50
[9] = bistrispropane buffer, pH 6.5, read-out: Solubility pH 6.5 Concentration
[10] = bistrispropane buffer, pH 7.5, read-out: Solubility pH 7.5 Concentration
[11] = bistrispropane buffer, pH 6.0, read-out: Solubility pH 6.0 Concentration
[12] = bistrispropane buffer, pH 7.0, read-out: Solubility pH 7.0 Concentration
[13] = bistrispropane buffer, pH 8.0, read-out: Solubility pH 8.0 Concentration
[14] = glycylglycine buffer, pH 3.0, read-out: Solubility pH 3.0 Concentration
[15] = glycylglycine buffer, pH 4.0, read-out: Solubility pH 4.0 Concentration
[16] = glycylglycine buffer, pH 5.0, read-out: Solubility pH 5.0 Concentration
[17] = hCTR funct. EC50 over hAmylin-R funct. EC50

T3 sequence (O60896 24-148): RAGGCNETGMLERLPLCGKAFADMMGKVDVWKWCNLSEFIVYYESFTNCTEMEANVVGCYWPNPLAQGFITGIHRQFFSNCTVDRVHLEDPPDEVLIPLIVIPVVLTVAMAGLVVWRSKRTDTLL
T3 sequence (P30988 25-474): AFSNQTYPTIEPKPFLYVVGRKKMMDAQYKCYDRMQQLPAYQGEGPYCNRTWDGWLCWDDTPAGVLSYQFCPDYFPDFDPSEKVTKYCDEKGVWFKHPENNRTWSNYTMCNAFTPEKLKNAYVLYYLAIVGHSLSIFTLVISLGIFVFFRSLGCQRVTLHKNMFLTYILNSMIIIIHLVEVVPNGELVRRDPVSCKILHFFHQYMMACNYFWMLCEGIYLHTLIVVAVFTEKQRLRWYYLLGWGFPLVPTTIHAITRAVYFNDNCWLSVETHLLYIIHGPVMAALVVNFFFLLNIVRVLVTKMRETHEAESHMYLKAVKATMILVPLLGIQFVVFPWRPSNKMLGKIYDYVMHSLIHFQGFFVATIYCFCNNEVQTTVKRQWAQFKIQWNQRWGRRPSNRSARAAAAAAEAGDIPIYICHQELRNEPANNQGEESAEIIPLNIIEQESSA

IC50 ([1]; Table 7) [nM]	Ratio rCT/rAmylin binding [1, 4]	Ratio rCT/rAmylin binding [1, 5]	Ratio rCT/rAmylin binding [1, 6]	IC50 (rat calcitonin receptor) [nM]	Ratio hCT/hAmylin funct. [2, 7]	Ratio hCT/hAmylin funct. [2, 8]	solubility at 18 h [3, 9] [µM]	solubility at 18 h [3, 10] [µM]	solubility at 18 h [3, 11] [µM]	solubility at 18 h [3, 12] [µM]	solubility at 18 h [3, 13] [µM]	solubility at 18 h [3, 14] [µM]	solubility at 18 h [3, 15] [µM]	solubility at 18 h [3, 16] [µM]	Ratio hCT/hAmylin funct. [2, 17]	EC50 [2] [nM]	SMILES
0.246	74.1	74.1	74.1	18.2	7.2	7.2	≥ 200	≥ 200	≥ 200	≥ 200	≥ 200	≥ 200	≥ 200	≥ 200			CC[C@H](C)[C@H](NC(=O)[C@H](C)NC(=O)CNC(=O)[C@H](Cc1ccccc1)NC(=O)[C@H](CC(N)=O)NC(=O)[C@@H]1CCCN1C(=O)[C@H](CO)NC(=O)[C@H](CO)NC(=O)[C@H](Cc1c[nH]cn1)NC(=O)[C@H](CCCNC(=N)N)NC(=O)[C@H](CC(C)C)NC(=O)[C@H](Cc1ccccc1)NC(=O)[C@H](Cc1c[nH]cn1)NC(=O)[C@H](C)NC(=O)[C@H](CC(C)C)NC(=O)[C@H](CCCNC(=N)N)NC(=O)[C@H](CCC(N)=O)NC(=O)[C@@H](NC(=O)[C@H](C)NC(=O)[C@@H]1CSSC[C@H](NC(=O)[C@@H](N)CCCCNC(=O)COCCOCCNC(=O)CCCCCCCCCCCCCCCCCCC(=O)O)C(=O)N[C@@H](CC(N)=O)C(=O)N[C@@H]([C@@H](C)O)C(=O)N[C@@H](C)C(=O)N[C@@H]([C@@H](C)O)C(=O)N1)[C@@H](C)O)C(=O)N1CCC[C@H]1C(=O)N[C@@H](CO)C(=O)N[C@@H](CO)C(=O)N[C@H](C(=O)N[C@@H](CC(N)=O)C(=O)N[C@H](C(=O)NCC(=O)N[C@@H](CO)C(=O)N[C@@H](CC(N)=O)C(=O)N[C@H](C(=O)N[C@@H](Cc1ccc(O)cc1)C(N)=O)[C@@H](C)O)C(C)C)[C@@H](C)O [Example 90]
1.65	21.5	21.5	21.5	35.5	24.5	24.5	≥ 200	≥ 200	≥ 200	≥ 200	≥ 200	≥ 200	≥ 200	≥ 200	24.5	0.161	CC[C@H](C)[C@H](NC(=O)[C@H](C)NC(=O)CNC(=O)[C@H](Cc1ccccc1)NC(=O)[C@H](CC(N)=O)NC(=O)[C@@H]1CCCN1C(=O)[C@H](CO)NC(=O)[C@H](CO)NC(=O)[C@H](Cc1c[nH]cn1)NC(=O)[C@H](CCCNC(=N)N)NC(=O)[C@H](CC(C)C)NC(=O)[C@H](Cc1ccccc1)NC(=O)[C@H](CC(N)=O)NC(=O)[C@H](C)NC(=O)[C@H](CC(C)C)NC(=O)[C@H](CCCNC(=N)N)NC(=O)[C@H](CCC(N)=O)NC(=O)[C@@H](NC(=O)[C@H](C)NC(=O)[C@@H]1CSSC[C@H](NC(=O)[C@@H](N)CCCCNC(=O)CC[C@H](NC(=O)CCCCCCCCCCCCCCCCCCC(=O)O)C(=O)O)C(=O)N[C@@H](CC(N)=O)C(=O)N[C@@H]([C@@H](C)O)C(=O)N[C@@H](C)C(=O)N[C@@H]([C@@H](C)O)C(=O)N1)[C@@H](C)O)C(=O)N1CCC[C@H]1C(=O)N[C@@H](CO)C(=O)N[C@@H](CO)C(=O)N[C@H](C(=O)N[C@@H](CC(N)=O)C(=O)N[C@H](C(=O)NCC(=O)N[C@@H](CCCNC(=N)N)C(=O)N[C@@H](CC(N)=O)C(=O)N[C@H](C(=O)N[C@@H](Cc1ccc(O)cc1)C(N)=O)[C@@H](C)O)C(C)C)[C@@H](C)O [Example 79] (H-K([γGlu-C20 diacid])CNTATCATQRLANFLRHSSPNFGAIPSSTNVGRNTY-NH2; disulfide 2-7 (inferred); N-terminus assumed)
1.3	103.9	103.9	103.9	135		12.0	≥ 200	≥ 200	≥ 200	≥ 200	≥ 200	≥ 200	≥ 200	172 (≈ 776 µg/mL)	12.0	0.224	CC(C)C[C@H](NC(=O)[C@H](CCCNC(=N)N)NC(=O)[C@H](CCC(N)=O)NC(=O)[C@@H](NC(=O)[C@H](C)NC(=O)[C@@H]1CSSC[C@H](NC(=O)[C@@H](N)CCCCNC(=O)CC[C@H](NC(=O)CC[C@H](NC(=O)CCCCCCCCCCCCCCCCCCC(=O)O)C(=O)O)C(=O)O)C(=O)N[C@@H](CC(N)=O)C(=O)N[C@@H]([C@@H](C)O)C(=O)N[C@@H](C)C(=O)N[C@@H]([C@@H](C)O)C(=O)N1)[C@@H](C)O)C(=O)N[C@@H](C)C(=O)N[C@@H](CC(=O)O)C(=O)N[C@@H](Cc1ccccc1)C(=O)N[C@@H](CC(C)C)C(=O)N[C@@H](CCCNC(=N)N)C(=O)N[C@@H](Cc1c[nH]cn1)C(=O)N[C@@H](CO)C(=O)N[C@@H](CO)C(=O)N1CCC[C@H]1C(=O)N[C@@H](CC(N)=O)C(=O)N[C@@H](Cc1ccccc1)C(=O)NCC(=O)N[C@@H](C)C(=O)N1CCC[C@H]1C(=O)N[C@@H](CC(C)C)C(=O)N[C@@H](CO)C(=O)N[C@@H](CO)C(=O)N[C@H](C(=O)N[C@@H](CC(N)=O)C(=O)N[C@H](C(=O)NCC(=O)N[C@@H](CO)C(=O)N[C@@H](CC(=O)O)C(=O)N[C@H](C(=O)N[C@@H](Cc1ccc(O)cc1)C(N)=O)[C@@H](C)O)C(C)C)[C@@H](C)O [Example 1] (H-K([γGlu-γGlu-C20 diacid])CNTATCATQRLADFLRHSSPNFGAPLSSTNVGSDTY-NH2; disulfide 2-7)
1.58	83.2	83.2	83.2	131	9.7	9.7	≥ 200	≥ 200	≥ 200	≥ 200	≥ 200	≥ 200	≥ 200	≥ 200	9.7		CC[C@H](C)[C@H](NC(=O)[C@H](C)NC(=O)CNC(=O)[C@H](Cc1ccccc1)NC(=O)[C@H](CC(N)=O)NC(=O)[C@@H]1CCCN1C(=O)[C@H](CO)NC(=O)[C@H](CO)NC(=O)[C@H](Cc1c[nH]cn1)NC(=O)[C@H](CCCNC(=N)N)NC(=O)[C@H](CC(C)C)NC(=O)[C@H](Cc1ccccc1)NC(=O)[C@H](C)NC(=O)[C@H](C)NC(=O)[C@H](CC(C)C)NC(=O)[C@H](CCCNC(=N)N)NC(=O)[C@H](CCC(N)=O)NC(=O)[C@@H](NC(=O)[C@H](C)NC(=O)[C@@H]1CSSC[C@H](NC(=O)[C@@H](N)CCCCNC(=O)CC[C@H](NC(=O)CCCCCCCCCCCCCCCCCCC(=O)O)C(=O)O)C(=O)N[C@@H](CC(N)=O)C(=O)N[C@@H]([C@@H](C)O)C(=O)N[C@@H](C)C(=O)N[C@@H]([C@@H](C)O)C(=O)N1)[C@@H](C)O)C(=O)N1CCC[C@H]1C(=O)N[C@@H](CO)C(=O)N[C@@H](CO)C(=O)N[C@H](C(=O)N[C@@H](CC(N)=O)C(=O)N[C@H](C(=O)NCC(=O)N[C@@H](Cc1c[nH]cn1)C(=O)N[C@@H](CC(N)=O)C(=O)N[C@H](C(=O)N[C@@H](Cc1ccc(O)cc1)C(N)=O)[C@@H](C)O)C(C)C)[C@@H](C)O [Example 93] (H-K([γGlu-C20 diacid])CNTATCATQRLAAFLRHSSPNFGAIPSSTNVGHNTY-NH2; disulfide 2-7; N-terminus assumed)
